Test results reported in US10104890B2, “Compositions and methods for controlling pesticide resistant pests” (Rothamsted Research Limited, priority 2011, dated 2018).

Tested on: Myzus persicae clone 5191A
Type: in vivo
Settings: for LC50 (lethal concentration to kill 50% of the population): LC50 of imidacloprid, alone or after 5 h pre-treatment with 0.25 μL of 1 g L−1 synergist, apterous aphids, topical, scored 72 h after treatment, probit analysis; for SF = synergism factor (LC50 unsynergised/LC50 synergised): with imidacloprid, 1 g L−1 synergist, 5 h pre-treatment, clone 5191A
Experimental: Aphids for bioassays were reared on Chinese cabbage leaves (Brassica rapa L. var. Pekinensis c.v Wong Bok) (Brassicaceae) in small plastic box-cages (Blackman boxes) (Stewart Plastics Ltd, Surrey, UK) maintained at 18±2° C. with a 16 h light: 8 h dark photoperiod. Each box contained two adult aphids placed on a leaf and left for 5 days to produce nymphs. After the 5th day the adults were removed and their esterase levels determined to ensure that no contamination or loss of esterase expression (reversion) among the different clones had occurred during the rearing process. After approximately 13-15 days adults were used for bioassays.
Clone 5191A was collected from tobacco in Greece in 2007, and established from a single parthenogenetic female.
Apterous aphids were transferred from Blackman boxes (section 2.1.1) to the abaxial surface of Chinese cabbage leaf discs (approximately 10 adults per leaf disc) held on 1% agar in plastic containers (4 cm in diameter, A.W. Gregory & Co Limited, Kent, UK). The upper edge of each container was coated with Fluon® (Whitford Plastics, Cheshire, UK) to prevent aphid escape from the leaf surface. Netted lids were added to ensure apterous aphids could not escape. After allowing 30 min for the aphids to settle, each was dosed with 0.25 μL of 1 g L^−1 synergist dissolved in acetone or acetone only using a Burkard microapplicator (Burkhard Scientific, Middx, UK). Synergist concentrations chosen conferred no significant mortality compared to the acetone control treatment in preliminary bioassays. Five hours later, aphids were further treated with 0.25 μL imidacloprid in acetone at a range of concentrations, at least 3 replicates per concentration per bioassay. Controls were treated with 0.25 μL of acetone or 1 g L^−1 synergist in acetone and after 5 h with a further 0.25 μL of acetone.
Treated aphids were kept at 18±2° C. and 16 h light: 8 h dark photoperiod and scored 72 h after treatment. Aphids incapable of co-ordinated movement (after gentle touching with a paint brush if necessary) were scored as dead. All bioassays were performed a minimum of three times.
Pooled raw data from at least three separate bioassays were analysed by probit analysis using the statistical programme PC Polo Plus (LeOra, Software, Berkeley, USA). Polo Plus programme calculated the concentrations required to kill 50% of the population (LC50), 95% confidence limits (CL95%), slopes with standard errors (SE), chi-square (χ2) and degrees of freedom (df). Natural response was also estimated when control mortality occurred.

Compound | LC50 (lethal concentration to kill 50% of the population) | SF = synergism factor (LC50 unsynergised/LC50 synergised)
CCCCOCCOCCOCc1cc2c(cc1CCC)CCC2 [EN 14-5] | 41.5 ppm | 2.17
CCCCOCCOCCOCc1cc2c(cc1CCC)CCO2 [EN 16-5] | 12.2 ppm | 7.41
CC#CCOc1cc2c(cc1CCC)CCO2 [EN 16-17] | 7.11 ppm | 12.7
CC#COCc1ccc2c(c1)CCO2 [EN 16-18] | 18.4 ppm | 4.91
CC#CCO[C@H](C)c1ccc(OC)c(OC)c1 [EN 25-10] | 4.88 ppm | 18.5
CC#CCOCc1cc2c(cc1CCC)OCO2 [EN 126] | 0.31 ppm | 292
CCCCCCCCCCCCc1ccc2c(c1)OCO2 [EN 129] | 28.4 ppm | 3.18
CC#CCOc1ccc2c(c1)OCO2 [EN 163] | 2.98 ppm | 30.3
CC#CCOc1cc2c(cc1CCC)OCO2 [EN 164] | 1.25 ppm | 72.4
CCCCOCCOCCOCc1cc2c(cc1CCC)OCO2 [PBO, piperonyl butoxide] | 6.22 ppm | 14.5
O=[N+]([O-])NC1=NCCN1Cc1ccc(Cl)nc1 [imidacloprid] | 90.4 ppm | 
